Reference: US20260199493A1 (priority 2021, published 2026)

Legend:
[1] = tested on: DM1 patient-derived muscle cells; conditions: 30 μM, 4 days of differentiation
Description: (§1) Patient myoblasts were treated with 30 micromolar of EEV-oligo throughout 4 days of differentiation. Splicing correction was assessed by one-step RT-PCR. HCR—FISH and sequestered MBNL1 protein detection assays were used to detect RNA foci.
(§2) Patient myoblasts harbor 2600 CTG repeats within the DMPK 3′UTR. […] Splicing correction was assessed by one-step RT-PCR and Labchip analysis. Plotted mean f SD; n=4 HCR—FISH assay for CUG foci detection in place.

nuclear foci (CUG foci) = conditions: DM1 patient-derived muscle cells, 30 μM, 4 days of differentiation
Description: as §1, §2

[2] = tested on: MBNL1 downstream genes (Atp2a1, Nfix, Clcn1, Mbnl1); conditions: 1 week
Excerpt: (§3) 9 week old HSA-LR mice and control FVB mice were employed in a 1 week post single dose range study. The HSA-LR mice were divided into 5 groups. […] Tissues were harvested after 7 days. RT-PCR was used to determine alternative splicing for specific genes (Atp2a1, Clcn1, Nfix, MBNL1). LC-mass was used to determine drug level in Quad, gastro, TA, Triceps, diaphragm, heart, kidney, liver, Brain, plasma. RNA-seq was used to determine the transcription level change between a treated disease model, an untreated disease model and wild-type. Fluorescence imaging was used to determine RNA Foci reduction after treatment with the EEV-oligo compound. […] Q-PCR was used to determine the reduction of mRNA level of actin-HSA after treatment.
(§4) RT-PCR was used to determine alternative splicing for specific genes (Atp2a1, Clcn1, Nfix, MBNL1). LC-mass was used to determine drug level in Quad, gastro, TA, Triceps, diaphragm, heart, kidney, liver, Brain, plasma. RNA-seq was used to determine the transcription level change between a treated disease model, an untreated disease model and wild-type. Fluorescence imaging was used to determine RNA Foci reduction after treatment with the EEV-oligo compound. Myotonia reduction was recorded 7 days after treatment with the EEV-oligo compound. Q-PCR was used to determine the reduction of mRNA level of actin-HSA after treatment.

HSA mRNA = conditions: HSA-LR mice
Excerpt: as §4, with “[…] The HSA-LR mice were divided into 5 groups. […] […] RT-PCR” for “RT-PCR”, “Myotonia reduction was recorded 7 days after treatment with the EEV-oligo compound.” left out
as §4

[3] = Excerpt: as §3
CUG foci = conditions: HSA-LR mouse, 1 week
Excerpt: as §3

IRF5 protein = conditions: for efficacy relative to EEV-PMO-IRF5-1 / IRF-5 protein expression compared to cells stimulated with R848 / IRF-5 protein reduction: RAW 264.7 cells; for efficacy relative to EEV-PMO-IRF5-1 / relative potency compared to EEV-PMO-IRF5-1 (IRF5 protein expression): R848 stimulation; for efficacy relative to EEV-PMO-IRF5-1: on average; for IRF-5 protein expression compared to cells stimulated with R848: all tested concentrations; for IRF-5 protein reduction: concentrations as low as 2 μM, vs cells stimulated with R848; for relative potency compared to EEV-PMO-IRF5-1 (IRF5 protein expression): mouse macrophage cells, Western Blot
IRF-5 gene exon skipping = conditions: RAW 264.7 cells, 5 μM
Description: Briefly, 150K cells/well were seeded in a 24 well plate in 0.5 ml DMEM. […] Following the second incubation, the RNA was harvested and RT-PCR was done using primers that detect exon 5 skipping in the IRF-5 gene.

[4] = tested on: human dystrophin (DMD) exon 44; assay: Exon 44 skipping in DMD patient-derived muscle cells; type: cell-based; conditions: dose-dependent, maximum observed
Description: After 24 hours, the compound-containing growth medium was replaced with DMEM/2% horse serum and incubated for 5 days to promote myoblast fusion and differentiation into myotubes. Cells were washed and harvested for RNA extraction to assess exon 44 skipping, or in RIPA buffer containing protease inhibitors for protein extraction and Simple Western analysis of dystrophin protein restoration. Dystrophin levels were normalized to HSP90 and expressed relative to untreated healthy samples. Data are expressed as mean±SD, n=3-4. Untreated DMDΔ45 patient derived cells express ~10% spontaneous DMD exon 44 skipping and ~4% dystrophin protein at baseline.

[5] = tested on: exon 44 of human dystrophin mRNA; assay: Exon 44 skipping by RT-PCR in hDMD mice; type: in vivo
Description: The hemizygous mice were further genotyped at Transnetyx. All groups were dosed 5 mL/kg per animal by intravenous (iv) injection and sacrificed after 5 days post injection. All animals were euthanized by CO2 asphyxiation followed by terminal blood collection via cardiac puncture. Maximum obtainable volume of whole blood was collected into lithium heparin tubes and processed to plasma. A portion of plasma was analyzed for clinical chemistries by the Testing Facility (IDEXX) and the rest stored frozen at nominally −70° C. […] Animals were age matched and assigned into eight (8) treatment groups according to Table 15. […] All animals survived until their scheduled euthanasia time. Tissues were collected per protocol. The amount of AC and a cCPP-AC in various tissue samples was quantified by LC-MS. Exon skipping in different tissues were analyzed by RT-PCR and the quantification of exon 44 correction.
(§5) Exon Skipping Analysis by RT-PCR: hDMD mice and NHP express full-length human dystrophin mRNA. The delivery of AC can alter the splicing and result in a shortened dystrophin mRNA after exon 44 skipping. The tissues were homogenized using 1 mL of RLT lysis buffer (Qiagen, Cat #79216). The detection of splicing correction process was measured by RT-PCR where extracted RNAs from tissues were first reverse-transcribed into cDNA and further analyzed by one step RT-PCR using the following primer set: forward primer 5′-[…]-3′ (SEQ ID NO: 262) and reverse primer 5′-[…]-3′ (SEQ ID NO: 263). […] Quantification of the relative intensity of the bands corresponding to skipped and unskipped transcripts were performed to assess AC-induced exon-44-skipping efficacy. The degree (percentage) of splicing correction detected by RT-PCR was calculated using the following equation: % correction=(intensity of 493 bp fragment band)/(intensity of 493 bp fragment band+intensity of 641 bp fragment band).

[6] = tested on: exon 44 of dystrophin mRNA; assay: Exon 44 skipping by RT-PCR in NHP; type: in vivo, cynomolgus monkeys
Description: Each testing article was formulated in saline at 4 mg/mL. Bloods and urine were taken at times indicated in Table 18 for further PK analysis. Biopsy at 2 days post injection was performed on biceps. Animals were sacrificed at day 7 post injection and skeletal muscles (quadriceps, diaphragm, biceps, deltoid, tibialis anterior (TiA), smooth muscles (esophagus, aorta, colon) and cardiac muscles (ventricle, atrium) were taken, pulverized, and stored at −80° C. for evaluation of exon skipping and biodistribution in tissues.
as §5
Approximately 20 hours post dose the animal was (bright, alert, and responsive such that the animal was phenotypically “normal”) (BAR) and had zero biscuits left in the cage and was observed eating produce.

GYS1 = conditions: GAA knockout mice, single IV dose, one-week post-injection
[7] = in vivo
Excerpt: as §3, §4

[8] = tested on: Human Primary Renal Proximal Tubular Epithelial Cells (RPTECs); conditions: 24 hours
[9] = HSA-LR mice, 15, 30, 60, 90 mpk IV

For “Ac-PKKKRKV-AEEA-K(cyclo[FGFGRGRQ])-PEG12-OH [EEV-PMO-DM1-3]”, the biomarker splicing correction [1] was “significant biomarker splicing correction”, the nuclear foci (nuclear foci (CUG foci)) was “reduction in nuclear foci” and the “correction of MBNL1 downstream genes, gastrocnemius” value [2, 9] was “dose dependent correction”. For the same substance, the “correction of MBNL1 downstream genes, quadriceps” value [2, 9] was “dose dependent correction”, the “correction of MBNL1 downstream genes, tibialis anterior” value [2, 9] was “dose dependent correction” and the “correction of MBNL1 downstream genes, triceps” value [2, 9] was “dose dependent correction”. The “mis-splicing in gastrocnemius, triceps, tibialis anterior and quadricep” value ([2]; HSA-LR mice, 60 mpk oligo, 80 mpk whole drug) was “fully correct mis-splicing”, the “HSA mRNA knockdown” value (HSA mRNA; 80 mpk IV, 1-week and 4-week post-injection) was “HSA mRNA knockdown trend” and the “HSA mRNA knockdown in skeletal muscles” value (HSA mRNA; quadriceps, gastrocnemius, triceps, tibialis anterior, 1 week) was 50-70%. For the same substance, the myotonia ([3]; HSA-LR mice, 15, 30, 60 and 90 mpk, 7 days) was “dose dependent myotonia reduction”, the hindlimb myotonia ([3]; HSA-LR mice, single dose 90 mg/kg, 1 week) was “did not exhibit obvious signs of hindlimb myotonia after induction” and the “CUG foci in TA muscle” value (CUG foci) was “reduces CUG foci”.

For “Ac-PKKKRKV-AEEA-K(cyclo[FGFGRRRQ])-PEG12-OH [EEV-PMO-IRF5-3]”, the “efficacy relative to EEV-PMO-IRF5-1” value (IRF5 protein) was 5 fold, the “IRF-5 protein expression compared to cells stimulated with R848” value (IRF5 protein) was “significant reduction in IRF-5 protein expression” and the IRF-5 protein reduction (IRF5 protein) was “about 80%”. The “relative potency compared to EEV-PMO-IRF5-1 (IRF5 protein expression)” value (“relative potency” for short) (IRF5 protein) was “significant improvement in relative potency” and the “exon skipping compared to EEV-PMO-IRF5-1” value (IRF-5 gene exon skipping) was “higher exon skipping”.

In the case of “Ac-PKKKRKV-AEEA-K(cyclo[FGFRRRRQ])-PEG12-OH [EEV-PMO-IRF5-4]”, the “efficacy relative to EEV-PMO-IRF5-1” value (IRF5 protein) is reported as 5 fold, the “IRF-5 protein expression compared to cells stimulated with R848” value (IRF5 protein) is reported as “significant reduction in IRF-5 protein expression” and the IRF-5 protein reduction (IRF5 protein) is reported as “about 80%”. The “relative potency” value (IRF5 protein) was “significant improvement in relative potency” and the “exon skipping compared to EEV-PMO-IRF5-1” value (IRF-5 gene exon skipping) was “higher exon skipping”.

In the case of “Ac-PKKKRKV-AEEA-K(cyclo[FfΦGrGrQ])-PEG12-OH [EEV-PMO-IRF5-2]”, the “efficacy relative to EEV-PMO-IRF5-1” value (IRF5 protein) is reported as 5 fold, the “IRF-5 protein expression compared to cells stimulated with R848” value (IRF5 protein) is reported as “significant reduction in IRF-5 protein expression” and the IRF-5 protein reduction (IRF5 protein) is reported as “about 80%”. For the same substance, the “relative potency” value (IRF5 protein) was “significant improvement in relative potency” and the “exon skipping compared to EEV-PMO-IRF5-1” value (IRF-5 gene exon skipping) was “higher exon skipping”.

With “Ac-PKKKRKV-AEEA-Lys-(cyclo[FGFGRGRQ])-PEG12-OH [EEV-PMO-DMD44-1]” the “exon 44 skipping” value [4] was “up to 100%”, the exon skipping ([5]; hDMD mice, 10 mpk IV, 5 days, Diaphragm) was 6% and the exon skipping ([5]; hDMD mice, 10 mpk IV, 5 days, TiA) was 12%. It also gave an exon skipping ([5]; hDMD mice, 10 mpk IV, 5 days, Triceps) of 6%, an exon skipping ([5]; hDMD mice, 10 mpk IV, 5 days, heart) of 0% and an exon skipping ([5]; hDMD mice, 20 mpk IV, 5 days, Diaphragm) of 33%. The exon skipping ([5]; hDMD mice, 20 mpk IV, 5 days, TiA) was 36%, the exon skipping ([5]; hDMD mice, 20 mpk IV, 5 days, Triceps) was 22 and the exon skipping ([5]; hDMD mice, 20 mpk IV, 5 days, heart) was 0%. The exon skipping ([5]; hDMD mice, 40 mpk IV, 5 days, Diaphragm) was 82%, the exon skipping ([5]; hDMD mice, 40 mpk IV, 5 days, TiA) was 99% and the exon skipping ([5]; hDMD mice, 40 mpk IV, 5 days, Triceps) was 94%. For the same substance, the exon skipping ([5]; hDMD mice, 40 mpk IV, 5 days, heart) was 20%, the exon skipping ([5]; hDMD mice, 80 mpk IV, 5 days, Diaphragm) was 98% and the exon skipping ([5]; hDMD mice, 80 mpk IV, 5 days, TiA) was 99%. The exon skipping ([5]; hDMD mice, 80 mpk IV, 5 days, Triceps) was 97%, the exon skipping ([5]; hDMD mice, 80 mpk IV, 5 days, heart) was 79% and the “minimum efficacious dose in the heart” value ([5]; hDMD mice, IV, 5 days) was 40 mpk. For the same substance, the exon skipping ([5]; mouse, in vivo) was “up to 100%”, the “exon 44 skipping across different muscle groups” value ([6]; 30 mg/kg, 1 hour IV infusion, 7 days) was “robust exon 44 skipping” and the “exon skipping in all skeletal muscles” value ([6]; 40 mpk IV, 7-d post injection) was “more than 78%”. The “exon skipping, atrium” value ([6]; 40 mpk IV, 7-d post injection) was 23.4%, the “exon skipping, diaphragm” value ([6]; 40 mpk IV, 7-d post injection) was 98.4% and the “exon skipping, esophagus” value ([6]; 40 mpk IV, 7-d post injection) was 57.1%. For the same substance, the “exon skipping, ventricle” value ([6]; 40 mpk IV, 7-d post injection) was 31.9%.

In the case of “Ac-PKKKRKV-PEG2-K(cyclo[Ff-Φ-Cit-r-Cit-rQ1)-PEG12-K(N3)-NH2 [EEV-PMO-GYS1-1]”, the “GYS1 expression in the diaphragm and cardiac muscle” value (GYS1) is reported as “significant knockdown”.

For “Ac-PKKKRKV-PEG2-K(cyclo[Ff-Φ-GrGrQ])-PEG2-K(N3)-NH2 [EEV-PMO-GYS1-2]”, the “GYS1 expression in the diaphragm and cardiac muscle” value (GYS1) was “significant knockdown”.

In the case of CAGCAGCAGCAGCAGCAGCAG [PMO-DM1], the “metabolite of EEV-PMO-DM1-3” value [7] is reported as “major metabolite detected in vivo” and the “toxicity (viability): no toxicity at highest concentration tested” value [8] is reported as > 817 µM.
